US7342018B2, “Urokinase inhibitors and uses thereof” (Wilex AG, priority 1998, dated 2008)

Legend:
Urokinase (sc-urokinase) = molecular target: T1, Urokinase (sc-urokinase) (Homo sapiens, UniProt P00749); assay: In vitro inhibition of urokinase (chromogenic substrate, Dixon Ki); assay type: biochemical; conditions: in vitro inhibition of urokinase, 25° C, pH 8.0, 5% ethanol; read-out: Ki
T1 construct: purchased Ribosepharm GmbH, Haan, Germany
Experimental: To determine the inhibitory activity, 200 μl of Tris buffer (0.05 mol/l, containing the inhibitor, 0.154 mol/l NaCl, 5% ethanol pH 8.0), 25 μl of substrate (Pefachrome UK or Bz-βAla-Gly-Arg-pNA in H2O; Pentapharm Ltd., Basle, Switzerland) and 50 μl of sc-urokinase (Ribosepharm GmbH, Haan, Germany) were incubated at 25° C. After 3 min the reaction was stopped by adding 25 μl of acetic acid (50%), and the absorption at 405 nm was determined by means of a Microplate Reader (MR 5000, Dynatech, Denkendorf, Germany). Ki values were determined according to Dixon by linear regression using a computer program. The Ki values are the mean values of at least three determinations with a standard deviation of less than 25%.

[1] = system: BN-472 rat mammary carcinoma; assay: BN-472 rat mammary carcinoma model, single agent and combination with cytotoxics (Example 11); conditions: for anti-tumor effects (tumor size development, final tumor weight): once weekly administration i.v.
Experimental: WX-UK1 was dissolved in 5% w/v of D-mannitol to the appropriate dosage and administered once daily or twice weekly either subcutaneously (s.c.) or intraperitonally (i.p.).
Epirubicin (0.75-3 mg/kg body wight), paclitaxel (5-7.5 mg/kg) or 5-FU (20 and 40 mg/kg) was given once weekly by i.v. injection into the external jugular vein.
Control rats received the vehicle 5% w/v of D-mannitol once daily s.c.
A donor rat bearing a tumor of 20×20 mm was sacrificed, the tumor harvested ant the cortex part was sliced into cubes of approximately 10 mm^3 and the transplated orthotopically under the mammary fad pads of female Brown Norway rats.
Treatment was started three or six days (5-FU experiment) after tumor inoculation. Each treatment group consisted of 15 to 21 rats.
Tumor load is plotted as the average±standard error of the mean (SEM).
Tumor, organ weights as well as lung foci counts are presented in Box-Whisker graphs. […] Whiskers extend to the extreme lower 5th and upper 95th percentiles of values. Dots represent individual data.
P-values represent significance levels of pairwise comparisons of treatment groups versus vehicle control. For combination therapy experiments the P-values for the comparison of a cytostatic mono-therapy versus the combination therapy is given.

## CCOC(=O)N1CCN(C(=O)C(Cc2cccc(C(=N)N)c2)NS(=O)(=O)c2c(C(C)C)cc(C(C)C)cc2C(C)C)CC1.Cl (centres unmarked) [D,L, Nα-(2,4,6-triisopropylphenylsulfonyl)-3-amidino-(D,L)-phenylalanine 4-ethoxycarbonylpiperazide hydrochloride]
Urokinase (sc-urokinase)
  Ki: 0.96 µM

## O=c1[nH]cc(F)c(=O)[nH]1 [Example 5-FU, 5-fluorouracil, reference compound]
[1]
  anti-tumor effects (tumor size development, final tumor weight): Dose-dependent anti-tumor effects

## COc1cccc2c1C(=O)c1c(O)c3c(c(O)c1C2=O)C[C@@](O)(C(=O)CO)C[C@@H]3O[C@H]1C[C@H](N)[C@@H](O)[C@H](C)O1 [epirubicin, reference compound]
[1]
  anti-tumor effects (tumor size development, final tumor weight): Dose-dependent anti-tumor effects
[1]; rat, in vivo
  thymus atrophy: thymus atrophy

## CC(=O)O[C@H]1C(=O)[C@@]2(C)[C@H]([C@H](OC(=O)c3ccccc3)[C@]3(O)C[C@H](OC(=O)[C@H](O)[C@@H](NC(=O)c4ccccc4)c4ccccc4)C(C)=C1C3(C)C)[C@]1(OC(C)=O)CO[C@@H]1C[C@@H]2O [paclitaxel, reference compound]
[1]
  anti-tumor effects (tumor size development, final tumor weight): Dose-dependent anti-tumor effects
